Tested on: patients with prior myocardial infarction (CARE study)
Experiment: CARE: association of SNPs with pravastatin treatment in cardiovascular events prevention (logistic regression, odds ratio pravastatin vs placebo by genotype; Table 8)
Type: in vivo, human
From the text: In order to identify genetic markers associated with acute coronary events (e.g. MI, stroke, unstable angina, congestive heart failure, etc.) or response to statin treatment for the prevention of coronary events, samples from the Cholesterol and Recurrent Events (CARE) study (a randomized multicentral double-blinded trial on secondary prevention of acute coronary events with pravastatin) (Sacks et al., 1991, Am. J. Cardiol. 68: 1436-1446) were genotyped. A well-documented myocardial infarction (MI) was one of the enrollment criteria for entry into the CARE study. Patients were enrolled in the CARE trial from 80 participating study centers. […] Patients were randomized to receive either 40 mg of pravastatin once daily or a matching placebo. The primary endpoint of the trial was death from coronary heart disease and the median duration of follow-up was 5.0 years (range, 4.0 to 6.2 years). […] Secondary endpoints of other related cardiovascular or metabolic disease events, and changes in clinical variables were also recorded in pravastatin-treated and placebo groups. All individuals included in the study had signed a written informed consent form and the study protocol was approved by the respective Institutional Review Boards (IRBs).
For genotyping SNPs in CARE patient samples, DNA was extracted from blood samples using conventional DNA extraction methods such as the QIA-amp kit from Qiagen. Genotypes were obtained on an ABI PRISM® 7900HT Sequence Detection PCR system (Applied Biosystems, Foster City, Calif.) by kinetic allele-specific PCR, similar to the method described by Germer et al. (Germer S., Holland M. J., Higuchi R. 2000, Genome Res. 10: 258-266).
Statistical analysis for association of SNPs with pravastatin treatment in cardiovascular events prevention (Table 8) was carried out using an overall logistic regression model that included an intercept, a parameter for the effect of a genotype containing two rare alleles versus a genotype containing no rare alleles, a parameter for the effect of a genotype containing one rare allele versus a genotype containing no rare alleles, a parameter for the effect of use of pravastatin versus the use of placebo, and parameters for the interaction effects between SNP genotypes and pravastatin use. The test of the overall model is a chi-square test with two degrees of freedom for analyses containing all three genotypes, and one degree of freedom for analyses containing two genotypes.
Effect sizes were estimated through odds ratios (pravastatin group versus placebo) for carriers of each genotype (groups of 0, 1, and 2 minor allele carriers). The effect was considered to be significant if p-value for testing whether any of the interactions between SNP genotypes and pravastatin use were <0.05. […] Odds ratios less than one indicate that the specific SNP allele has a protective effect and odds ratios greater than one indicate that the specific SNP allele has an adverse effect.

[1] = CXCL16 hCV8718197, All Patients, Cardiovascular Mortality
[2] = CXCL16 hCV8718197, All Patients, Coronary Artery Bypass or Revascularization
[3] = CXCL16 hCV8718197, All Patients, Fatal Atherosclerotic Cardiovascular Disease
[4] = CXCL16 hCV8718197, All Patients, Fatal CHD/Definite Non-fatal MI
[5] = CXCL16 hCV8718197, All Patients, Fatal/Non-fatal MI (def & prob)
[6] = CXCL16 hCV8718197, All Patients, Hosp. for Cardiovascular Disease
[7] = CXCL16 hCV8718197, All Patients, Total Cardiovascular Disease Events
[8] = CXCL16 hCV8718197, All Patients, Total Coronary Heart Disease
[9] = CYP4F2 hCV16179493, All Patients, 0 Rare Alleles, Prava arm
[10] = CYP4F2 hCV16179493, All Patients, 1 Rare Allele, Prava arm
[11] = CYP4F2 hCV16179493, All Patients, 2 Rare Alleles, Prava arm
[12] = ELN hCV1253630, All Patients, 0 Rare Alleles, Prava, n/total 45/543

CC[C@H](C)C(=O)O[C@H]1C[C@H](O)C=C2C=C[C@H](C)[C@H](CC[C@@H](O)C[C@@H](O)CC(=O)O)[C@H]21 [pravastatin]
Fatal Atherosclerotic Cardiovascular Disease, n/total (%) (CXCL16 hCV8718197, All Patients, 2 Rare Alleles, Prava, n/total 19/292): (6.5%)
Fatal CHD/Definite Non-fatal MI, n/total (%) (CXCL16 hCV8718197, All Patients, 2 Rare Alleles, Prava, n/total 34/292): (11.6%)
Fatal/Non-fatal MI (def & prob), n/total (%) (CXCL16 hCV8718197, All Patients, 2 Rare Alleles, Prava, n/total 36/292): (12.3%)
Coronary Artery Bypass or Revascularization, n/total (%) (CXCL16 hCV8718197, All Patients, 2 Rare Alleles, Prava, n/total 43/292): (14.7%)
Total Coronary Heart Disease Events, n/total (%) (CXCL16 hCV8718197, All Patients, 2 Rare Alleles, Prava, n/total 94/292): (32.2%)
Hosp. for Cardiovascular Disease, n/total (%) (CXCL16 hCV8718197, All Patients, 2 Rare Alleles, Prava, n/total 124/292): (42.5%)
Total Cardiovascular Disease Events, n/total (%) (CXCL16 hCV8718197, All Patients, 2 Rare Alleles, Prava, n/total 130/292): (44.5%)
Prava vs. Placebo Odds Ratio, 0 Rare Alleles [1]: 0.45
Prava vs. Placebo Odds Ratio, 1 Rare Alleles [1]: 0.80
Prava vs. Placebo Odds Ratio, 2 Rare Alleles [1]: 2.08
Prava vs. Placebo Odds Ratio, 0 Rare Alleles [2]: 0.45
Prava vs. Placebo Odds Ratio, 1 Rare Alleles [2]: 0.93
Prava vs. Placebo Odds Ratio, 2 Rare Alleles [2]: 0.70
Prava vs. Placebo Odds Ratio, 0 Rare Alleles [3]: 0.45
Prava vs. Placebo Odds Ratio, 1 Rare Alleles [3]: 0.76
Prava vs. Placebo Odds Ratio, 2 Rare Alleles [3]: 2.08
Prava vs. Placebo Odds Ratio, 0 Rare Alleles [4]: 0.44
Prava vs. Placebo Odds Ratio, 1 Rare Alleles [4]: 0.82
Prava vs. Placebo Odds Ratio, 2 Rare Alleles [4]: 1.05
Prava vs. Placebo Odds Ratio, 0 Rare Alleles [5]: 0.38
Prava vs. Placebo Odds Ratio, 1 Rare Alleles [5]: 0.80
Prava vs. Placebo Odds Ratio, 2 Rare Alleles [5]: 0.92
Prava vs. Placebo Odds Ratio, 0 Rare Alleles [6]: 0.59
Prava vs. Placebo Odds Ratio, 1 Rare Alleles [6]: 0.89
Prava vs. Placebo Odds Ratio, 2 Rare Alleles [6]: 0.80
Prava vs. Placebo Odds Ratio, 0 Rare Alleles [7]: 0.56
Prava vs. Placebo Odds Ratio, 1 Rare Alleles [7]: 0.90
Prava vs. Placebo Odds Ratio, 2 Rare Alleles [7]: 0.81
Prava vs. Placebo Odds Ratio, 0 Rare Alleles [8]: 0.57
Prava vs. Placebo Odds Ratio, 1 Rare Alleles [8]: 0.92
Prava vs. Placebo Odds Ratio, 2 Rare Alleles [8]: 0.82
Cardiovascular Mortality, n/total (%) [9]: (3.3%)
Catheterization, n/total (%) [9]: (10.5%)
Fatal Atherosclerotic Cardiovascular Disease, n/total (%) [9]: (3.2%)
Fatal Coronary Heart Disease, n/total (%) [9]: (2.5%)
Total Mortality, n/total (%) [9]: (4.7%)
Cardiovascular Mortality, n/total (%) [10]: (4.4%)
Catheterization, n/total (%) [10]: (8.6%)
Fatal Atherosclerotic Cardiovascular Disease, n/total (%) [10]: (4.4%)
Fatal Coronary Heart Disease, n/total (%) [10]: (4.2%)
Total Mortality, n/total (%) [10]: (6.6%)
Cardiovascular Mortality, n/total (%) [11]: (2.1%)
Catheterization, n/total (%) [11]: (16.7%)
Fatal Atherosclerotic Cardiovascular Disease, n/total (%) [11]: (2.1%)
Fatal Coronary Heart Disease, n/total (%) [11]: (2.1%)
Total Mortality, n/total (%) [11]: (4.2%)
Non-fatal MI (def & prob), n/total (%) (ELN hCV1253630, All Patients, 0 Rare Alleles, Prava, n/total 42/543): (7.7%)
Fatal CHD/Definite Non-fatal MI, n/total (%) [12]: (8.3%)
Fatal/Non-fatal MI (def & prob), n/total (%) [12]: (8.3%)
Total Coronary Heart Disease Events, n/total (%) (ELN hCV1253630, All Patients, 0 Rare Alleles, Prava, n/total 146/543): (26.9%)
Hosp. for Cardiovascular Disease, n/total (%) (ELN hCV1253630, All Patients, 0 Rare Alleles, Prava, n/total 204/543): (37.6%)
Total Cardiovascular Disease Events, n/total (%) (ELN hCV1253630, All Patients, 0 Rare Alleles, Prava, n/total 212/543): (39.0%)
Non-fatal MI (def & prob), n/total (%) (ELN hCV1253630, All Patients, 1 Rare Allele, Prava, n/total 62/724): (8.6%)
Fatal CHD/Definite Non-fatal MI, n/total (%) (ELN hCV1253630, All Patients, 1 Rare Allele, Prava, n/total 65/724): (9.0%)
Fatal/Non-fatal MI (def & prob), n/total (%) (ELN hCV1253630, All Patients, 1 Rare Allele, Prava, n/total 68/724): (9.4%)
Total Coronary Heart Disease Events, n/total (%) (ELN hCV1253630, All Patients, 1 Rare Allele, Prava, n/total 206/724): (28.5%)
Hosp. for Cardiovascular Disease, n/total (%) (ELN hCV1253630, All Patients, 1 Rare Allele, Prava, n/total 291/724): (40.2%)
Total Cardiovascular Disease Events, n/total (%) (ELN hCV1253630, All Patients, 1 Rare Allele, Prava, n/total 298/724): (41.2%)
